Patent publication US20020137929A1, “1 - (3-heterocyclylphenyl) isothiourea, -isourea, -guanidine and -amidine herbicidal agents” (Intellectual Property Department, BASF Aktiengesellschaft, priority 1998, published 2002)

Assays:
[1] = tested on: ECHORC (Watergrass (Calif.)); assay: Preemergence weed control under flooded paddy conditions; type: in vivo, Echinochloa oryzoides; settings: rated 3-4 weeks after treatment
In short: (§1)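 Seeds or propagules sown in top 0.5 cm of silt loam soil, flooded 1.5 to 3 cm above surface throughout. Compound in 50/50 v/v aqueous/acetone pipetted into flood water at about 0.0313 to 0.500 kg/ha. Visual 0-9 rating versus control after three to four weeks in greenhouse.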

[2] = tested on: MOOVA (Monochoria); assay: as above; type: in vivo, Monochoria vaginalis; settings: rated 3-4 weeks after treatment
In short: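 Visual injury scored 0-9 against control three to four weeks post-treatment, greenhouse-grown. Application: acetone/water (50/50) solutions dosed directly into flood water (1.5-3 cm over silt loam, planted top 0.5 cm), roughly 0.0313 to 0.500 kg/ha active ingredient.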

[3] = tested on: IPOHE (Morningglory, Ivyleaf); assay: Postemergence herbicidal evaluation; type: in vivo, Ipomoea hederacea; settings: postemergence
In short: (§2)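 Young plants, roughly two weeks from seeding, receive the active ingredient as a sprayed dispersion (acetone/water 50/50, 0.5% TWEEN 20) at 40 psi. Doses span about 0.0156 to 0.500 kg/ha. A visual score from 0 to 9 compares treated with control plants four to five weeks on.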

[4] = tested on: ECHCG (Barnyardgrass); assay: Preemergence herbicidal evaluation; type: in vivo, Echinochloa crus-galli; settings: rated 4-5 weeks after treatment
In short: (§3)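 In this greenhouse assay, monocot and dicot seeds are planted in soil and treated prior to emergence with an aqueous acetone spray (about 0.0156-0.500 kg/ha). Plants are assessed visually against control on a 0-9 scale after 4-5 weeks.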

[5] = tested on: IPOHE (Morningglory, Ivyleaf); assay: Preemergence herbicidal evaluation; type: in vivo, Ipomoea hederacea; settings: rated 4-5 weeks after treatment
In short: as §3

[6] = tested on: SETVI (Foxtail, Green); assay: Preemergence herbicidal evaluation; type: in vivo, Setaria viridis; settings: rated 4-5 weeks after treatment
In short: as §3

[7] = tested on: ABUTH (Velvetleaf); assay: Preemergence herbicidal evaluation; type: in vivo, Abutilon theophrasti; settings: rated 4-5 weeks after treatment
In short: as §3

[8] = tested on: CYPIR (Rice Flatsedge); assay: Preemergence weed control under flooded paddy conditions; type: in vivo, Cyperus iria; settings: rated 3-4 weeks after treatment
In short: as §1

[9] = tested on: ZEAMX (Corn, Field); assay: Preemergence herbicidal evaluation; type: in vivo, Zea mays; settings: rated 4-5 weeks after treatment
In short: as §3

[10] = tested on: GALAP (Galium); assay: Postemergence herbicidal evaluation; type: in vivo, Galium aparine; settings: postemergence
In short: as §2

[11] = tested on: SETVI (Foxtail, Green); assay: Postemergence herbicidal evaluation; type: in vivo, Setaria viridis; settings: postemergence
In short: as §2

[12] = tested on: TRZAWR (Wheat, Winter, cv Riband); assay: Postemergence herbicidal evaluation; type: in vivo, Triticum aestivum; settings: postemergence
In short: as §2

[13] = rate 0.0156 kg/ha, rating scale 0-9
[14] = rate 0.0313 kg/ha, rating scale 0-9
[15] = rate 0.0625 kg/ha, rating scale 0-9
[16] = rate 0.1250 kg/ha, rating scale 0-9
[17] = rate 0.2500 kg/ha, rating scale 0-9

CCOC(=O)CN1C(=O)C(C(=O)OC)SC1=Nc1cc(-n2c(=O)cc(C(F)(F)F)n(C)c2=O)c(F)cc1Cl (stereo not shown) [Compound 128, 5-Carboxy-2-{{2-chloro-5-[3,6-dihydro-3-methyl-2,6-dioxo-4-(trifluoromethyl)-1(2H)-pyrimidinyl]-4-fluorophenyl}imino}-4-oxo-3-thiazolidineacetic acid, 3-ethyl methyl ester]
herbicidal effect rating, ECHORC ([1]; 0.0313 kg/ha): 5.0 | herbicidal effect rating, ECHORC ([1]; 0.0625 kg/ha): 7.0 | herbicidal effect rating, ECHORC ([1]; 0.1250 kg/ha): 7.0 | herbicidal effect rating, ECHORC ([1]; 0.2500 kg/ha): 9.0 | herbicidal effect rating, MOOVA ([2]; 0.0313 kg/ha): 6.0 | herbicidal effect rating, MOOVA ([2]; 0.0625 kg/ha): 7.0 | herbicidal effect rating, MOOVA ([2]; 0.1250 kg/ha): 9.0 | herbicidal effect rating, MOOVA ([2]; 0.2500 kg/ha): 9.0 | Herbicidal rating IPOHE ([3]; rate 0.0156 kg/ha): 9.0 | Herbicidal rating IPOHE ([3]; rate 0.0313 kg/ha): 9.0 | Herbicidal rating IPOHE ([3]; rate 0.0625 kg/ha): 9.0 | Preemergence herbicidal rating ECHCG ([4]; rate 0.0156 kg/ha): 0.0 | Preemergence herbicidal rating ECHCG ([4]; rate 0.0313 kg/ha): 0.0 | Preemergence herbicidal rating ECHCG ([4]; rate 0.0625 kg/ha): 0.0 | Preemergence herbicidal rating ECHCG ([4]; rate 0.1250 kg/ha): 0.0 | Preemergence herbicidal rating ECHCG ([4]; rate 0.2500 kg/ha): 2.0 | Preemergence herbicidal rating IPOHE ([5]; rate 0.0156 kg/ha): 0.0 | Preemergence herbicidal rating IPOHE ([5]; rate 0.0313 kg/ha): 0.0 | Preemergence herbicidal rating IPOHE ([5]; rate 0.0625 kg/ha): 4.0 | Preemergence herbicidal rating IPOHE ([5]; rate 0.1250 kg/ha): 9.0 | Preemergence herbicidal rating IPOHE ([5]; rate 0.2500 kg/ha): 7.0 | Preemergence herbicidal rating SETVI ([6]; rate 0.0156 kg/ha): 0.0 | Preemergence herbicidal rating SETVI ([6]; rate 0.0313 kg/ha): 1.0 | Preemergence herbicidal rating SETVI ([6]; rate 0.1250 kg/ha): 1.0 | Preemergence herbicidal rating SETVI ([6]; rate 0.2500 kg/ha): 7.0 | Preemergence herbicidal rating ABUTH ([7]; rate 0.0156 kg/ha): 0.0 | Preemergence herbicidal rating ABUTH ([7]; rate 0.0313 kg/ha): 0.0 | Preemergence herbicidal rating ABUTH ([7]; rate 0.0625 kg/ha): 1.0 | Preemergence herbicidal rating ABUTH ([7]; rate 0.1250 kg/ha): 3.0 | Preemergence herbicidal rating ABUTH ([7]; rate 0.2500 kg/ha): 9.0 | herbicidal effect rating, CYPIR ([8]; 0.0313 kg/ha): 0.0 | herbicidal effect rating, CYPIR ([8]; 0.0625 kg/ha): 4.0 | herbicidal effect rating, CYPIR ([8]; 0.1250 kg/ha): 4.0 | herbicidal effect rating, CYPIR ([8]; 0.2500 kg/ha): 4.0 | Preemergence herbicidal rating ZEAMX ([9]; rate 0.0156 kg/ha): 0.0 | Preemergence herbicidal rating ZEAMX ([9]; rate 0.0313 kg/ha): 0.0 | Preemergence herbicidal rating ZEAMX ([9]; rate 0.0625 kg/ha): 0.0 | Preemergence herbicidal rating ZEAMX ([9]; rate 0.1250 kg/ha): 0.0 | Preemergence herbicidal rating ZEAMX ([9]; rate 0.2500 kg/ha): 0.0 | Herbicidal rating GALAP ([10]; rate 0.0156 kg/ha): 1.0 | Herbicidal rating GALAP ([10]; rate 0.0313 kg/ha): 1.0 | Herbicidal rating GALAP ([10]; rate 0.0625 kg/ha): 3.0 | Herbicidal rating SETVI ([11]; rate 0.0156 kg/ha): 1.0 | Herbicidal rating SETVI ([11]; rate 0.0313 kg/ha): 1.0 | Herbicidal rating SETVI ([11]; rate 0.0625 kg/ha): 4.0 | Herbicidal rating TRZAWR ([12]; rate 0.0156 kg/ha): 2.0 | Herbicidal rating TRZAWR ([12]; rate 0.0313 kg/ha): 3.0 | Herbicidal rating TRZAWR ([12]; rate 0.0625 kg/ha): 3.5

C=C1SC(=Nc2cc(-n3c(=O)cc(C(F)(F)F)n(C)c3=O)c(F)cc2Cl)N(CC(=O)OCC)C1=O [Compound 154]
herbicidal effect rating, ECHORC ([1]; 0.0313 kg/ha): 3.0 | herbicidal effect rating, ECHORC ([1]; 0.0625 kg/ha): 4.0 | herbicidal effect rating, ECHORC ([1]; 0.1250 kg/ha): 7.0 | herbicidal effect rating, ECHORC ([1]; 0.2500 kg/ha): 7.0 | herbicidal effect rating, MOOVA ([2]; 0.0313 kg/ha): 6.0 | herbicidal effect rating, MOOVA ([2]; 0.0625 kg/ha): 7.0 | herbicidal effect rating, MOOVA ([2]; 0.1250 kg/ha): 8.0 | herbicidal effect rating, MOOVA ([2]; 0.2500 kg/ha): 9.0 | Herbicidal rating IPOHE ([3]; rate 0.0156 kg/ha): 9.0 | Herbicidal rating IPOHE ([3]; rate 0.0313 kg/ha): 9.0 | Herbicidal rating IPOHE ([3]; rate 0.0625 kg/ha): 9.0 | Preemergence herbicidal rating ECHCG [4, 13]: 0.0 | Preemergence herbicidal rating ECHCG [4, 14]: 4.0 | Preemergence herbicidal rating ECHCG [4, 15]: 9.0 | Preemergence herbicidal rating ECHCG [4, 16]: 9.0 | Preemergence herbicidal rating ECHCG [4, 17]: 9.0 | Preemergence herbicidal rating IPOHE [5, 13]: 0.0 | Preemergence herbicidal rating IPOHE [5, 14]: 9.0 | Preemergence herbicidal rating IPOHE [5, 15]: 9.0 | Preemergence herbicidal rating IPOHE [5, 16]: 9.0 | Preemergence herbicidal rating IPOHE [5, 17]: 9.0 | Preemergence herbicidal rating SETVI [6, 13]: 2.0 | Preemergence herbicidal rating SETVI [6, 14]: 7.0 | Preemergence herbicidal rating SETVI [6, 15]: 9.0 | Preemergence herbicidal rating SETVI [6, 16]: 9.0 | Preemergence herbicidal rating SETVI [6, 17]: 9.0 | Preemergence herbicidal rating ABUTH [7, 13]: 9.0 | Preemergence herbicidal rating ABUTH [7, 14]: 9.0 | Preemergence herbicidal rating ABUTH [7, 15]: 9.0 | Preemergence herbicidal rating ABUTH [7, 16]: 9.0 | Preemergence herbicidal rating ABUTH [7, 17]: 9.0 | herbicidal effect rating, CYPIR ([8]; 0.0313 kg/ha): 2.0 | herbicidal effect rating, CYPIR ([8]; 0.0625 kg/ha): 3.0 | herbicidal effect rating, CYPIR ([8]; 0.1250 kg/ha): 4.0 | herbicidal effect rating, CYPIR ([8]; 0.2500 kg/ha): 6.0 | Preemergence herbicidal rating ZEAMX [9, 13]: 5.0 | Preemergence herbicidal rating ZEAMX [9, 14]: 7.0 | Preemergence herbicidal rating ZEAMX [9, 15]: 8.0 | Preemergence herbicidal rating ZEAMX [9, 16]: 9.0 | Preemergence herbicidal rating ZEAMX [9, 17]: 9.0 | Herbicidal rating GALAP ([10]; rate 0.0156 kg/ha): 3.0 | Herbicidal rating GALAP ([10]; rate 0.0313 kg/ha): 3.0 | Herbicidal rating GALAP ([10]; rate 0.0625 kg/ha): 4.0 | Herbicidal rating SETVI ([11]; rate 0.0156 kg/ha): 0.0 | Herbicidal rating SETVI ([11]; rate 0.0313 kg/ha): 0.0 | Herbicidal rating SETVI ([11]; rate 0.0625 kg/ha): 5.0 | Herbicidal rating TRZAWR ([12]; rate 0.0156 kg/ha): 3.5 | Herbicidal rating TRZAWR ([12]; rate 0.0313 kg/ha): 3.5 | Herbicidal rating TRZAWR ([12]; rate 0.0625 kg/ha): 4.0
